Source: patent US8592455B2 (priority 2008, dated 2013)
pIC50: −log10 of the molar value.

Tests used:
Pim1 kinase = Pim1 kinase (Homo sapiens (Human), UniProt P11309); conditions: read-out: Pim1 IC50
Pim3 kinase = Pim3 kinase (Homo sapiens (Human), UniProt Q86V86); conditions: read-out: Pim3 IC50

Chain of Pim1 kinase (P11309 whole entry): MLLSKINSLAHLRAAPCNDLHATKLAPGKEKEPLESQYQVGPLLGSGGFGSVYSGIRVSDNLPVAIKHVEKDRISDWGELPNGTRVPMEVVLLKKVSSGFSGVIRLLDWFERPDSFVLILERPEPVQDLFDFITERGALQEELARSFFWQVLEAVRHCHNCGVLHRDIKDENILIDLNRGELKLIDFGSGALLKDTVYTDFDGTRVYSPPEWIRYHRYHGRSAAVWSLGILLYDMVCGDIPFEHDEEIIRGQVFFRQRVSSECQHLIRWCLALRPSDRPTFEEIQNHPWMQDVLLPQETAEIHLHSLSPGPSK

| Structure (SMILES) | pIC50 (Pim1 kinase) | pIC50 (Pim3 kinase) |
| --- | --- | --- |
| N[C@H]1CCC[C@@H](c2ccncc2NC(=O)c2ccc(F)c(-c3cc(F)cc(F)c3F)n2)C1 [Example 14, N-(4-((1R,3S)-3-aminocyclohexyl)pyridin-3-yl)-5-fluoro-6-(2,3,5-trifluorophenyl)picolinamide] | 8.22 | 7.92 |
| CCc1ccc(F)c(-c2cccc(C(=O)Nc3cnccc3[C@H]3C[C@@H](N)[C@H](O)[C@@H](C)C3)n2)c1F [Example 15, N-(4-((1R,3R,4R,5S)-3-amino-4-hydroxy-5-methylcyclohexyl)pyridin-3-yl)-6-(3-ethyl-2,6-difluorophenyl)picolinamide] | 8.52 | 8.22 |
| CCc1ccc(F)c(-c2cccc(C(=O)Nc3cnccc3[C@H]3C[C@@H](N)[C@@H](O)[C@@H](C)C3)n2)c1F [Example 17, N-(4-((1R,3R,4S,5S)-3-amino-4-hydroxy-5-methylcyclohexyl)pyridin-3-yl)-6-(3-ethyl-2,6-difluorophenyl)picolinamide] | 9.00 | 8.30 |
| CCc1ccc(F)c(-c2cccc(C(=O)Nc3cnccc3[C@@H]3CCC[C@H](N)C3)n2)c1F [Example 19, N-(4-((1R,3S)-3-aminocyclohexyl)pyridin-3-yl)-6-(3-ethyl-2,6-difluorophenyl)picolinamide] | 8.52 | 8.15 |
| Cc1ccc(F)c(-c2nc(C(=O)Nc3cnccc3[C@@H]3CCC[C@H](N)C3)ccc2F)c1F [Example 20, N-(4-((1R,3S)-3-aminocyclohexyl)pyridin-3-yl)-6-(2,6-difluoro-3-methylphenyl)-5-fluoropicolinamide] | 9.00 | 8.52 |
| CCc1ccc(F)c(-c2cccc(C(=O)Nc3cnccc3[C@@H]3C[C@H](C)C[C@H](N)C3)n2)c1F [Example 21, N-(4-((1R,3S,5S)-3-amino-5-methylcyclohexyl)pyridin-3-yl)-6-(3-ethyl-2,6-difluorophenyl)picolinamide] | 8.70 | 8.22 |
| Cc1ccc(F)c(-c2nc(C(=O)Nc3cnccc3N3C[C@@H](N)[C@H](O)[C@@H](C)C3)ccc2F)c1F [Example 22, N-(4-((3R,4R,5S)-3-amino-4-hydroxy-5-methylpiperidin-1-yl)pyridin-3-yl)-6-(2,6-difluoro-3-methylphenyl)-5-fluoropicolinamide] | 9.00 | 8.52 |
| C[C@H]1CN(c2ccncc2NC(=O)c2cccc(-c3ccccc3F)n2)C[C@@H](N)[C@@H]1O [Example 23, N-(4-((3R,4R,5S)-3-amino-4-hydroxy-5-methylpiperidin-1-yl)pyridin-3-yl)-6-(2-fluorophenyl)picolinamide] | 8.70 | 8.52 |
| C[C@H]1CN(c2ccncc2NC(=O)c2nc(-c3c(F)cccc3F)ccc2F)C[C@@H](N)[C@@H]1O [Example 24, N-(4-((3R,4R,5S)-3-amino-4-hydroxy-5-methylpiperidin-1-yl)pyridin-3-yl)-6-(2,6-difluorophenyl)-3-fluoropicolinamide] | 9.00 | 9.00 |
| Cc1ccc(F)c(-c2nc(C(=O)Nc3cnccc3[C@@H]3C[C@H](C)C[C@H](N)C3)ccc2F)c1F [Example 27, N-(4-((1R,3S,5S)-3-amino-5-methylcyclohexyl)pyridin-3-yl)-6-(2,6-difluoro-3-methylphenyl)-5-fluoropicolinamide] | 9.00 | 8.70 |
| Cc1ccc(F)c(-c2cccc(C(=O)Nc3cnccc3[C@@H]3CCC[C@H](N)C3)n2)c1F [Example 28, N-(4-((1R,3S)-3-aminocyclohexyl)pyridin-3-yl)-6-(2,6-difluoro-3-methylphenyl)picolinamide] | 9.00 | 8.70 |
| Cc1ccc(F)c(-c2cccc(C(=O)Nc3cnccc3[C@H]3C[C@@H](N)[C@H](O)[C@@H](C)C3)n2)c1F [Example 30, N-(4-((1R,3R,4R,5S)-3-amino-4-hydroxy-5-methylcyclohexyl)pyridin-3-yl)-6-(2,6-difluoro-3-methylphenyl)picolinamide] | 8.70 | 8.40 |
| Cc1ccc(F)c(-c2cccc(C(=O)Nc3cnccc3[C@H]3C[C@@H](N)[C@@H](O)[C@@H](C)C3)n2)c1F [Example 31, N-(4-((1R,3R,4S,5S)-3-amino-4-hydroxy-5-methylcyclohexyl)pyridin-3-yl)-6-(2,6-difluoro-3-methylphenyl)picolinamide] | 8.70 | 8.40 |
| N[C@H]1CCC[C@@H](c2ccncc2NC(=O)c2ccc(F)c(-c3c(F)cc(O)cc3F)n2)C1 [Example 32, N-(4-((1R,3S)-3-aminocyclohexyl)pyridin-3-yl)-6-(2,6-difluoro-4-hydroxyphenyl)-5-fluoropicolinamide] | 9.00 | 8.52 |
| N[C@H]1CCC[C@@H](c2ccncc2NC(=O)c2ccc(F)c(-c3cc(O)ccc3F)n2)C1 [Example 33, N-(4-((1R,3S)-3-aminocyclohexyl)pyridin-3-yl)-5-fluoro-6-(2-fluoro-5-hydroxyphenyl)picolinamide] | 9.00 | 8.52 |
| N[C@H]1CCC[C@@H](c2ccncc2NC(=O)c2nc(-c3cc(O)ccc3F)ccc2F)C1 [Example 34, N-(4-((1R,3S)-3-aminocyclohexyl)pyridin-3-yl)-3-fluoro-6-(2-fluoro-5-hydroxyphenyl)picolinamide] | 8.40 | 8.22 |
| C[C@@H]1C[C@H](N)C[C@H](c2ccncc2NC(=O)c2cccc(-c3cc(O)ccc3F)n2)C1 [Example 35, N-(4-((1R,3S,5S)-3-amino-5-methylcyclohexyl)pyridin-3-yl)-6-(2-fluoro-5-hydroxyphenyl)picolinamide] | 9.00 | 8.52 |
| C[C@@H]1C[C@H](N)C[C@H](c2ccncc2NC(=O)c2cccc(-c3ccc(O)cc3F)n2)C1 [Example 37, N-(4-((1R,3S,5S)-3-amino-5-methylcyclohexyl)pyridin-3-yl)-6-(2-fluoro-4-hydroxyphenyl)picolinamide] | 8.70 | 8.30 |
| C[C@@H]1C[C@H](N)C[C@H](c2ccncc2NC(=O)c2ccc(F)c(-c3ccc(O)cc3F)n2)C1 [Example 38, N-(4-((1R,3S,5S)-3-amino-5-methylcyclohexyl)pyridin-3-yl)-5-fluoro-6-(2-fluoro-4-hydroxyphenyl)picolinamide] | 9.00 | 8.52 |
| C[C@@H]1C[C@H](N)C[C@H](c2ccncc2NC(=O)c2nc(-c3ccc(O)cc3F)ccc2F)C1 [Example 39, N-(4-((1R,3S,5S)-3-amino-5-methylcyclohexyl)pyridin-3-yl)-3-fluoro-6-(2-fluoro-4-hydroxyphenyl)picolinamide] | 8.15 | 7.92 |
| C[C@@H]1C[C@H](N)C[C@H](c2ccncc2NC(=O)c2nc(-c3cc(O)ccc3F)ccc2F)C1 [Example 43, N-(4-((1R,3S,5S)-3-amino-5-methylcyclohexyl)pyridin-3-yl)-3-fluoro-6-(2-fluoro-5-hydroxyphenyl)picolinamide] | 9.00 | 8.70 |
| COc1ccc(F)c(-c2nc(C(=O)Nc3cnccc3[C@H]3C[C@@H](N)[C@H](O)[C@@H](C)C3)ccc2F)c1F [Example 47, N-(4-((1R,3R,4R,5S)-3-amino-4-hydroxy-5-methylcyclohexyl)pyridin-3-yl)-6-(2,6-difluoro-3-methoxyphenyl)-5-fluoropicolinamide] | 9.00 | 8.52 |
